In patent US20260027116A1, “Methods of Treating Chronic Graft-Versus-Host Disease Following Allogeneic Hematopoietic Stem Cell Transplantation” (Kadmon Corporation, LLC, priority 2022, published 2026):

System: patients with cGVHD
Details: Cohort 2 200 mg BID

CC(C)NC(=O)COc1cccc(-c2nc(Nc3ccc4[nH]ncc4c3)c3ccccc3n2)c1 [Belumosudil, 2-{3-[4-(1H-indazol-5-ylamino)-2-quinazolinyl]phenoxy}-N-(propan-2-yl) acetamide]
Bronchoscopy: # Events: 0 | Bronchoscopy: Affected/At Risk (%): 0/16 (0%) | Catheter site haemorrhage: # Events: 0 | Catheter site haemorrhage: Affected/At Risk (%): 0/16 (0%) | Chills: # Events: 1 | Chills: Affected/At Risk (%): 1/16 (6.25%) | Chronic kidney disease: # Events: 0 | Chronic kidney disease: Affected/At Risk (%): 0/16 (0%) | Conjunctival haemorrhage: # Events: 1 | Conjunctival haemorrhage: Affected/At Risk (%): 1/16 (6.25%) | Conjunctivitis: # Events: 1 | Conjunctivitis: Affected/At Risk (%): 1/16 (6.25%) | Constipation: # Events: 1 | Constipation: Affected/At Risk (%): 1/16 (6.25%) | Contrast media allergy: # Events: 2 | Contrast media allergy: Affected/At Risk (%): 2/16 (12.5%) | Contusion: # Events: 2 | Contusion: Affected/At Risk (%): 2/16 (12.5%) | Corneal abrasion: # Events: 0 | Corneal abrasion: Affected/At Risk (%): 0/16 (0%) | Corneal infection: # Events: 2 | Corneal infection: Affected/At Risk (%): 1/16 (6.25%) | Cough: # Events: 5 | Cough: Affected/At Risk (%): 4/16 (25%) | Death, No. (%): 0 | Decreased appetite: # Events: 2 | Decreased appetite: Affected/At Risk (%): 2/16 (12.5%) | Dehydration: # Events: 4 | Dehydration: Affected/At Risk (%): 3/16 (18.75%) | Depression: # Events: 4 | Depression: Affected/At Risk (%): 4/16 (25%) | Diarrhoea: # Events: 10 | Diarrhoea: Affected/At Risk (%): 5/16 (31.25%) | Dizziness: # Events: 4 | Dizziness: Affected/At Risk (%): 1/16 (6.25%) | Drug eruption: # Events: 1 | Drug eruption: Affected/At Risk (%): 1/16 (6.25%) | Drug-related AE, No. (%): 8 (50) | Drug-related SAE, No. (%): 0 | Dry eye: # Events: 4 | Dry eye: Affected/At Risk (%): 4/16 (25%) | Dry skin: # Events: 0 | Dry skin: Affected/At Risk (%): 0/16 (0%) | Dyspepsia: # Events: 2 | Dyspepsia: Affected/At Risk (%): 2/16 (12.5%) | Dysphagia: # Events: 4 | Dysphagia: Affected/At Risk (%): 3/16 (18.75%) | Dyspnoea exertional: # Events: 0 | Dyspnoea exertional: Affected/At Risk (%): 0/16 (0%) | Dyspnoea: # Events: 7 | Dyspnoea: Affected/At Risk (%): 5/16 (31.25%) | Embolism: # Events: 0 | Embolism: Affected/At Risk (%): 0/16 (0%) | Enamel anomaly: # Events: 1 | Enamel anomaly: Affected/At Risk (%): 1/16 (6.25%) | Epidural lipomatosis: # Events: 0 | Epidural lipomatosis: Affected/At Risk (%): 0/16 (0%) | Epstein-Barr virus infection: # Events: 0 | Epstein-Barr virus infection: Affected/At Risk (%): 0/16 (0%) | Erectile dysfunction: # Events: 0 | Erectile dysfunction: Affected/At Risk (%): 0/16 (0%) | Eye irritation: # Events: 0 | Eye irritation: Affected/At Risk (%): 0/16 (0%) | Eye pain: # Events: 4 | Eye pain: Affected/At Risk (%): 2/16 (12.5%) | Eye pruritus: # Events: 1 | Eye pruritus: Affected/At Risk (%): 1/16 (6.25%) | Fall: # Events: 1 | Fall: Affected/At Risk (%): 1/16 (6.25%) | Fatigue: # Events: 7 | Fatigue: Affected/At Risk (%): 3/16 (18.75%) | Flatulence: # Events: 2 | Flatulence: Affected/At Risk (%): 1/16 (6.25%) | Flushing: # Events: 1 | Flushing: Affected/At Risk (%): 1/16 (6.25%) | Fungal infection: # Events: 0 | Fungal infection: Affected/At Risk (%): 0/16 (0%) | Gamma-glutamyltransferase increased: # Events: 4 | Gamma-glutamyltransferase increased: Affected/At Risk (%): 4/16 (25%) | Gastric ulcer: # Events: 1 | Gastric ulcer: Affected/At Risk (%): 1/16 (6.25%) | Gastrooesophageal reflux disease: # Events: 1 | Gastrooesophageal reflux disease: Affected/At Risk (%): 1/16 (6.25%) | Generalised oedema: # Events: 0 | Generalised oedema: Affected/At Risk (%): 0/16 (0%) | Genital infection fungal: # Events: 1 | Genital infection fungal: Affected/At Risk (%): 1/16 (6.25%) | Glaucoma: # Events: 1 | Glucose urine present: # Events: 0 | Glucose urine present: Affected/At Risk (%): 0/16 (0%) | Grade ≥3 AE, No. (%): 10 (63) | Grade ≥3 ALT/AST increased, No. (%): 2 (13) | Grade ≥3 Anemia, No. (%): 1 (6) | Grade ≥3 Dyspnea, No. (%): 2 (13) | Grade ≥3 Hyperglycemia, No. (%): 0 | Grade ≥3 Hypoxia, No. (%): 1 (6) | Grade ≥3 Lung infection or pneumonia, No. (%): 2 (13) | Graft versus host disease in gastrointestinal tract: # Events: 0 | Graft versus host disease in gastrointestinal tract: Affected/At Risk (%): 0/16 (0%) | Gynaecomastia: # Events: 1 | Gynaecomastia: Affected/At Risk (%): 1/16 (6.25%) | Haematuria: # Events: 1 | Haematuria: Affected/At Risk (%): 1/16 (6.25%) | Hair growth abnormal: # Events: 0 | Hair growth abnormal: Affected/At Risk (%): 0/16 (0%) | Headache: # Events: 3 | Headache: Affected/At Risk (%): 3/16 (18.75%) | Hodgkin's disease recurrent: # Events: 0 | Hodgkin's disease recurrent: Affected/At Risk (%): 0/16 (0%) | Hordeolum: # Events: 0 | Hordeolum: Affected/At Risk (%): 0/16 (0%) | Hot flush: # Events: 0 | Hot flush: Affected/At Risk (%): 0/16 (0%) | Hyperglycemia: # Events: 0 | Hyperglycemia: Affected/At Risk (%): 0/16 (0%) | Hyperhidrosis: # Events: 1 | Hyperhidrosis: Affected/At Risk (%): 1/16 (6.25%) | Hyperkalaemia: # Events: 2 | Hyperkalaemia: Affected/At Risk (%): 2/16 (12.5%) | Hypertension: # Events: 5 | Hypertension: Affected/At Risk (%): 2/16 (12.5%) | Hyperthyroidism: # Events: 1 | Hyperthyroidism: Affected/At Risk (%): 1/16 (6.25%) | Hypertriglyceridaemia: # Events: 1 | Hypertriglyceridaemia: Affected/At Risk (%): 1/16 (6.25%) | Hyperuricaemia: # Events: 2 | Hyperuricaemia: Affected/At Risk (%): 1/16 (6.25%) | Hypoaesthesia: # Events: 0 | Hypoaesthesia: Affected/At Risk (%): 0/16 (0%) | Hypocalcaemia: # Events: 4 | Hypocalcaemia: Affected/At Risk (%): 1/16 (6.25%) | Hypogonadism: # Events: 0 | Hypogonadism: Affected/At Risk (%): 0/16 (0%) | Hypokalaemia: # Events: 3 | Hypokalaemia: Affected/At Risk (%): 2/16 (12.5%) | Hypomagnesaemia: # Events: 1 | Hypomagnesaemia: Affected/At Risk (%): 1/16 (6.25%) | Hyponatraemia: # Events: 0 | Hyponatraemia: Affected/At Risk (%): 0/16 (0%) | Hypophosphataemia: # Events: 1 | Hypophosphataemia: Affected/At Risk (%): 1/16 (6.25%) | Hypothermia: # Events: 1 | Hypothermia: Affected/At Risk (%): 1/16 (6.25%) | Hypothyroidism: # Events: 2 | Hypothyroidism: Affected/At Risk (%): 1/16 (6.25%) | Hypoxia: # Events: 5 | Hypoxia: Affected/At Risk (%): 2/16 (12.5%) | Impaired healing: # Events: 0 | Impaired healing: Affected/At Risk (%): 0/16 (0%) | Influenza like illness: # Events: 2 | Influenza like illness: Affected/At Risk (%): 1/16 (6.25%) | Influenza: # Events: 2 | Influenza: Affected/At Risk (%): 1/16 (6.25%) | Insomnia: # Events: 0 | Insomnia: Affected/At Risk (%): 0/16 (0%) | Irritability: # Events: 0 | Irritability: Affected/At Risk (%): 0/16 (0%) | Joint range of motion decreased: # Events: 1 | Joint range of motion decreased: Affected/At Risk (%): 1/16 (6.25%) | Lacrimation increased: # Events: 1 | Lacrimation increased: Affected/At Risk (%): 1/16 (6.25%) | Leukaemia recurrent: # Events: 0 | Leukaemia recurrent: Affected/At Risk (%): 0/16 (0%) | Leukocytosis: # Events: 0 | Leukocytosis: Affected/At Risk (%): 0/16 (0%) | Ligament sprain: # Events: 0 | Ligament sprain: Affected/At Risk (%): 0/16 (0%) | Limb injury: # Events: 0 | Limb injury: Affected/At Risk (%): 0/16 (0%) | Macular degeneration: # Events: 1
